Several values for one entry are separate records, joined by “and”; a condition that tells them apart may be missing. Identical values can stand only once. Like-named read-outs stand apart in the source and are kept apart here.
Columns and labels:
HBL cells [1] = experiment: MTT viability assay; format: cell-based, human; conditions: 24 h; for cytotoxicity (MTT): 25 or 50 μM
Method: (§1) The effect of the inhibitors on cell viability was evaluated by phase contrast microscopy and by means of the 3-(4,5-dimethyl-2-thiazolyl)-2,5-diphenyl-2H-tetrazolium bromide (MTT) assay. HBL cells were treated with the compounds (25 or 50 μM) for 24 h. At the end of the incubation period, phase contrast images were taken and the MTT assay was performed to test the cytotoxicity of each compound.
(§2) Figure 4 Effect of caffeic acid derivatives on the viability of HBL cells. Cells were incubated for 24 h with the inhibitors at 25 or 50 µM. (a) Phase contrast microscopy images. Representative images are shown (n = 8) Bar size: 50 μm. (b) MTT viability assay. Cells were grown in 96-well plates to ~80% confluence in the presence or absence of the indicated compounds. After 24 h, MTT was added (1 mg/mL final concentration) and maintained in the culture media for 4 h. Cells were PBS-washed twice and solubilized in DMSO. Absorbance at 562 nm was measured and represented as a percentage of the control value. The mean ± SEM of 8 independent experiments is shown. **** p < 0.0001.
Cell viability was measured by the MTT assay. HBL cells were seeded into the wells of a 96-wells plate at a density of 10,000 cells in 200 μL cell culture media. The seeded cells were incubated for 18 h at 37 °C, then treated with the compounds (25 or 50 μM) for 24 h or left untreated. At the end of the incubation period, images were taken and the MTT assay was performed to test the cytotoxicity of the different caffeic acid derivatives.

mushroom tyrosinase [2] = system: mushroom tyrosinase; set-up: method as in PMID 31105178; conditions: cited from earlier work
mushroom tyrosinase [3] = experiment: Mushroom tyrosinase DO activity inhibition (dopachrome formation at 475 nm, L-DOPA substrate); format: biochemical; conditions: 10 min pre-incubation, L-DOPA 1 mM, tyrosinase 20 U/mL, pH 6.8
Method: (§3) The inhibition properties of LCAME were preliminarily investigated on mushroom tyrosinase by spectrophotometric monitoring of dopachrome formation, a method which is routinely used for evaluation of the activity of potential tyrosinase inhibitors. L-DOPA was used as the substrate to test DO activity while L-tyrosine was used to test TH activity. LCAME was incubated in 50 mM phosphate buffer in the presence of mushroom tyrosinase (20 U/mL) at room temperature. After 10 min, L-DOPA or L-tyrosine (1 mM final concentration) were added and the absorbance at 475 nm was measured at different times over 10 min. For comparative purposes the effects of CAME were evaluated as well. Stock methanolic solutions of LCAME or CAME, ranging in concentration from 0.02 to 20 mM concentration were prepared dissolving a proper amount of the compound of interest in methanol. 100 μL of these solutions were added to 2 mL of 50 mM phosphate buffer at pH 6.8 (final concentrations range: 0.001–1 mM), in the presence or in the absence of 20 U/mL mushroom tyrosinase. After 10 min incubation at room temperature, 20 μL of a 100 mM solution of L-DOPA or L-tyrosine in 0.6 M HCl, were added (final concentration: 1 mM). Spectrophotometric analysis was performed by measuring the absorbance at 475 nm for 10 min at 2 min intervals. In control experiments, the reaction was run in the absence of LCAME. When required, the experiment was performed as above but adding L-DOP A soon after the addition of LCAME (0.050 μM). In separate experiments, the assay was run as above with LCAME or CAME at 100 μM, in the presence or absence of L-DOPA, and after 10 min the mixture was analyzed by HPLC.

mushroom tyrosinase [4] = experiment: Mushroom tyrosinase TH activity inhibition (dopachrome formation at 475 nm, L-tyrosine substrate); format: biochemical; conditions: 10 min pre-incubation, L-tyrosine 1 mM, tyrosinase 20 U/mL, pH 6.8
Method: as §3, with “After 10 min incubation at room temperature, 20 μL of a 100 mM solution of L-DOPA or L-tyrosine in 0.6 M HCl, were added (final concentration: 1 mM).” left out, “In control experiments, the reaction was run in the absence of LCAME. When required, the experiment was performed as above but adding L-DOP A soon after the addition of LCAME (0.050 μM).” left out

mushroom tyrosinase [5] = experiment: Consumption of inhibitor by mushroom tyrosinase (substrate test, HPLC); format: biochemical; conditions: 100 μM, 10 min
Method: Some tyrosinase inhibitors are also substrates of the enzyme and this is a critical issue because their oxidation can lead to the formation of highly reactive, cytotoxic o-quinones. To rule out this possibility, either LCAME or CAME at 100 μM were exposed to mushroom tyrosinase, in the absence of L-DOPA, and after 10 min, the reaction mixtures were analyzed by HPLC. […] HPLC analyses for determination of the consumption of CAME and LCAME in the presence of mushroom tyrosinase were performed on a Agilent 1100 binary pump instrument equipped with a UV-visible detector using an octadecylsilane-coated column, 250 mm × 4.6 mm, 5 μm particle size (Phenomenex Sphereclone ODS, Bologna, Italy) at 0.7 mL/min, using the following gradient: 0.1% formic acid (eluant a)/ methanol (eluant b): 40% b, 0–10 min; from 40 to 80% b, 47.5–52.5 min; from 80 to 40% b, 52.5–57.5 min. Detection wavelength was set at 280 nm. Stock methanolic solutions of LCAME or CAME, ranging in concentration from 0.02 to 20 mM concentration were prepared dissolving a proper amount of the compound of interest in methanol. 100 μL of these solutions were added to 2 mL of 50 mM phosphate buffer at pH 6.8 (final concentrations range: 0.001–1 mM), in the presence or in the absence of 20 U/mL mushroom tyrosinase. After 10 min incubation at room temperature, 20 μL of a 100 mM solution of L-DOPA or L-tyrosine in 0.6 M HCl, were added (final concentration: 1 mM). Spectrophotometric analysis was performed by measuring the absorbance at 475 nm for 10 min at 2 min intervals. In control experiments, the reaction was run in the absence of LCAME. When required, the experiment was performed as above but adding L-DOP A soon after the addition of LCAME ([…]). In separate experiments, the assay was run as above with LCAME or CAME at 100 μM, in the presence or absence of L-DOPA, and after 10 min the mixture was analyzed by HPLC.

HBL cells [6] = experiment: Phase contrast microscopy of cell morphology; format: cell-based, human; conditions: 50 μM, 24 h
Method: as §1, §2
Cell viability was measured by the MTT assay. HBL cells were seeded into the wells of a 96-wells plate at a density of 10,000 cells in 200 μL cell culture media. The seeded cells were incubated for 18 h at 37 °C, then treated with the compounds (25 or 50 μM) for 24 h or left untreated. […]

tyrosinase = experiment: Tyrosinase expression by Western blot (αPEP7), with or without NDP-MSH; format: cell-based, human
Method: Control HBL cells or cells grown in the presence of CAME (25 µM) or LCAME (25 or 50 µM) were stimulated for 48 h with a potent analogue of αMSH ([Nle^4,D-Phe^7]-α-MSH (NDP-MSH), 10^−7 M). Use of the 50 μM concentration of CAME was avoided since this concentration was somewhat cytotoxic as shown above. Expression of tyrosinase was then evaluated by Western blot using a specific antibody directed against tyrosinase (αPEP7). […] However, other mechanisms such as interference with activation and/or functional coupling of the melanocortin 1 receptor responsible for αMSH actions cannot be ruled out and a complete study of these possibilities is beyond the scope of this work. Accordingly, interference of LCAME with MITF expression or activity remains speculative at this stage. In any case, this preliminary observation deserves confirmation using cultured normal human melanocytes and further mechanistic analysis, as it may further support the potential use of LCAME as a skin depigmenting agent. Indeed, LCAME may act at two different levels, on one hand by inhibiting preexisting tyrosinase by a competitive mechanism, and on the other hand by interfering with αMSH-dependent induction of tyrosinase expression.
Figure 5 Effect on tyrosinase expression of CAME (25 µM) and LCAME (25 and 50 µM). HBL melanoma cells were incubated with or without the indicated compounds and stimulated with NDP-MSH (10^−7 M). After 48 h of treatment, tyrosinase levels were compared by Western blotting, performed as described in Materials and Methods. […] For each experimental condition, the fold-increase of tyrosinase abundance upon NDP-MSH treatment relative to the corresponding control was determined by densitometric analysis (ImageJ software) and is shown below the figure.
After protein separation by SDS-PAGE, they were transferred from the gel to the membrane and immunochemical detection with anti-PEP7 was performed as previously described. Briefly, the filters were blocked for 1 h in 2% bovine serum albumin in 1% Tween 20 PBS and incubated overnight at 4 °C with primary antibodies (1:4000 dilution). The filters were washed and further incubated with peroxidase-labeled mouse anti-rabbit IgG (1:5000 dilution). Staining and detection were done with ECL Plus Western Blotting Detection System chemiluminescent substrate (Thermo Fisher Scientific, Waltham, MA, USA). Images were acquired in a Fusion Solo.6S system (Vilber-Lourmat, Marne La Vallée, France). Signal intensities were estimated with ImageJ (National Institutes of Health, Bethesda, […], USA) in independent blots, and normalized with the corresponding loading controls (obtained by staining the membranes with an anti-ERK2 antibody).

[7] = target: T1, tyrosinase from HBL human melanoma cells (Homo sapiens, UniProt P14679); experiment: DO activity of human tyrosinase in HBL cell extracts (MBTH assay, 490 nm); format: biochemical; conditions: HBL cell extracts
T1 construct: endogenous in cells; host or cells: HBL human melanoma cells (detergent-solubilized cell extract)
T1 sequence (P14679 19-529): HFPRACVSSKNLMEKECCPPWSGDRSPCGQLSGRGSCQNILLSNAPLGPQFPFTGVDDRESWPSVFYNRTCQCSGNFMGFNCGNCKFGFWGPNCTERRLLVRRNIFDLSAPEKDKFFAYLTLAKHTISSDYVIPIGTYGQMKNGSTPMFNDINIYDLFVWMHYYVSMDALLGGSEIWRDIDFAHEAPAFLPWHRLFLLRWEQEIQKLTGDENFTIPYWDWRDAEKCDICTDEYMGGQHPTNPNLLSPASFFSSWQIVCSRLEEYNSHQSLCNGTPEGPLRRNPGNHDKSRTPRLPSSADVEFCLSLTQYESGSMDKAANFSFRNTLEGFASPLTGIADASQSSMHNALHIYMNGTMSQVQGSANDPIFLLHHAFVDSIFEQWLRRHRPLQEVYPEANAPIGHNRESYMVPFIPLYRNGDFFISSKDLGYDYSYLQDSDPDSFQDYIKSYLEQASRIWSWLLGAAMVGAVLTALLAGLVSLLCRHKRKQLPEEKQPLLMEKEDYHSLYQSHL
Method: In further experiments, the effect of LCAME and LCA was investigated on extracts from HBL human melanoma cells expressing tyrosinase, and the inhibition of DO activity was evaluated. DO activity was determined according to Winder and Harris with some minor modifications: cell extracts were incubated with 3-methyl-2-benzothiazolinone hydrazone (MBTH) and absorbance at 490 nm was measured every 10 min for 1 h.
Cells were solubilized in 1% Igepal, 1% phenylmethylsulfonyl fluoride, 50 mM phosphate buffer (pH 6.8) and centrifuged at 2000 rpm for 5 min.
DO activity determinations were performed according to Winder and Harris with minor modifications. Briefly, cell extracts (usually 50–100 µg protein/assay) were incubated with 5 mM MBTH and 2.5 mM L-DOPA in 50 mM phosphate buffer pH 6.8 in the presence of the indicated concentrations of the compound of choice in a 96-wells plate. DO activity was measured spectrophotometrically in a microplate reader every ten minutes for one hour and was expressed as the slopes calculated with the GraphPad Prism 7 software (Linear Regression, San Diego, CA, USA).
For the analysis of kinetic parameters, the assays were run as above, using different concentrations of L-DOPA (from 0.1 to 2.0 mM) and of the inhibitor (0, 10 and 25 μM) to build the Lineweaver–Burk plot.

human tyrosinase = system: T2, human tyrosinase; experiment: TH activity of human tyrosinase; format: biochemical; conditions: compared with DO activity
T2 construct: endogenous in cells

mushroom tyrosinase [8] = target: mushroom tyrosinase; set-up: method as in PMID 31105178; conditions: mushroom enzyme; read-out: IC50 (TH Activity); cited from earlier work
mushroom tyrosinase [9] = system: mushroom tyrosinase; set-up: method as in PMID 31105178; conditions: cited from earlier work; remark: listed apart in the source

O=C(O)/C=C/c1ccc(O)c(O)c1 [CA, caffeic acid]
cytotoxicity (MTT) (HBL cells [1]): not cytotoxic
effect on tyrosinase activity (mushroom tyrosinase [2]; same conditions as LCA): did not show any effect

COC(=O)/C=C/c1ccc(O)c(O)c1 [CAME, caffeic acid methyl ester, reference compound]
IC50 (mushroom tyrosinase [3]): 155 ± 7 µM
IC50 (mushroom tyrosinase [4]): 79 ± 7 µM
consumption of the inhibitor (mushroom tyrosinase [5]; absence of L-DOPA): almost complete
consumption of the inhibitor (mushroom tyrosinase [5]; presence of L-DOPA): extremely low
cell viability (MTT) (HBL cells [1]; 50 μM): reduced cell viability
cell morphology (phase contrast) (HBL cells [6]): became rounded
NDP-MSH-mediated induction of tyrosinase expression (tyrosinase; 25 µM, NDP-MSH 10^−7 M, 48 h): similarly induced
basal tyrosinase expression (tyrosinase; HBL cells, CAME 25 µM or LCAME 25 or 50 µM, Western blot): No significant changes

O=C(O)/C=C/c1ccc(O)c(O)c1SCCC(S)CCCCC(=O)O (stereo not drawn) [LCA, 2-S-lipoylcaffeic acid]
IC50 ([7]; DO activity, L-DOPA 2.5 mM, read-out: IC50 (Mean ± SEM)): 76 µM and 76.2 µM
inhibitory effect on DO activity ([7]; fixed concentration of 25 μM): significant inhibitory effect
effect on TH activity of human tyrosinase (human tyrosinase): much smaller
cytotoxicity (MTT) (HBL cells [1]): not cytotoxic
nature of tyrosinase inhibition (Lineweaver–Burk plots) (mushroom tyrosinase [2]): mixed type mechanism
IC50 (mushroom tyrosinase [2]; mushroom enzyme, read-out: IC50 (DO Activity)): 3.22 ± 0.02 µM
IC50 (mushroom tyrosinase [8]): 2 ± 0.1 µM
substrate of tyrosinase (mushroom tyrosinase [9]): not to be a substrate of tyrosinase

Reference: PMC6121902, “Conjugation with Dihydrolipoic Acid Imparts Caffeic Acid Ester Potent Inhibitory Effect on Dopa Oxidase Activity of Human Tyrosinase” (International Journal of Molecular Sciences, 2018)
